Data from US11780841B2, “3,6-methano-1H-pyrrolo[3,2-b]pyridine and 3,6-methano-1H-pyrrolo[3,2-c]pyridine compounds and medicaments using same” (priority 2018, dated 2023).

What follows are molecules tested on recombinant rabies virus 1088 strain expressing Gaussia Luciferase (GLuc) (1088/GLuc). Conditions: read-out: Anti-rabies activity.
Format: cell-based
`CC(C)CC[C@@H]1[C@@H]2[C@@H]3CN[C@@]1(C(=O)NCCc1ccccc1)C[C@@H]3CN2CC(C)C` [IF-727] gave an IC50 of under 5 µM.
In the case of `CC(C)CCN1C[C@H]2C[C@]3(C(=O)NCc4ccccc4)NC[C@H]2[C@H]1[C@H]3CC(C)C` [IF-733], the IC50 is reported as under 5 µM.
With `CC(C)CCN1C[C@H]2C[C@]3(C(=O)NCC(C)C)NC[C@H]2[C@H]1[C@H]3Cc1cccc2ccccc12` [IF-734] the IC50 was under 5 µM.
In the case of `CC(C)CCN1C[C@H]2C[C@]3(C(=O)NCC(C)C)NC[C@H]2[C@H]1[C@H]3Cc1ccccc1` [IF-735], the IC50 is reported as 10 to 30 µM.
Molecule `CC(C)CNC(=O)[C@@]12C[C@@H]3CN(CCc4ccccc4)[C@@H]([C@@H]3CN1)[C@H]2CC(C)C` [IF-738] has an IC50 of 10 to 30 µM.
In the case of `CC(C)CNC(=O)[C@@]12C[C@@H]3CN(Cc4cccc5ccccc45)[C@@H]([C@@H]3CN1)[C@H]2CC(C)C` [IF-739], the IC50 is reported as under 5 µM.
In the case of `CC(C)CC[C@@H]1[C@@H]2[C@@H]3CN[C@@]1(C(=O)NCc1ccccc1)C[C@@H]3CN2CC1CCCCC1` [IF-740], the IC50 is reported as 10 to 30 µM.
With `CC(C)CNC(=O)[C@@]12C[C@@H]3CN(CC4CCCCC4)[C@@H]([C@@H]3CN1)[C@H]2CC(C)C` [IF-742] the IC50 was 10 to 30 µM.
`CC(C)CC[C@@H]1[C@@H]2[C@@H]3CN[C@@]1(C(=O)NCc1ccccc1)C[C@@H]3CN2Cc1ccc(F)cc1` [IF-743] was tested, and the IC50 was 10 to 30 µM.
For `CC(C)CCNC(=O)[C@@]12C[C@@H]3CN(CCc4ccccc4)[C@@H]([C@@H]3CN1)[C@H]2Cc1ccccc1` [IF-744], the IC50 was under 5 µM.
In the case of `CC(C)CN1C[C@H]2C[C@]3(C(=O)NCc4ccccc4)NC[C@H]2[C@H]1[C@H]3Cc1cccc2ccccc12` [IF-753], the IC50 is reported as 10 to 30 µM.
`O=C(NCc1cccc2ccccc12)[C@@]12C[C@@H]3CN(CCO)[C@@H]([C@@H]3CN1)[C@H]2Cc1ccccc1` [IF-758] showed an IC50 of under 5 µM.
Work on `CC(C)CN1C[C@H]2C[C@]3(C(=O)NCc4cccc5ccccc45)NC[C@H]2[C@H]1[C@H]3Cc1cccc2ccccc12` [IF-778] yielded an IC50 of under 5 µM.
`O=C(NCc1cccc2ccccc12)[C@@]12C[C@@H]3CN(Cc4ccc(O)cc4)[C@@H]([C@@H]3CN1)[C@H]2Cc1cccc2ccccc12` [IF-779] showed an IC50 of 10 to 30 µM.
With `CC(C)NC(=O)[C@@]12C[C@@H]3CN(Cc4cccc5ccccc45)[C@@H]([C@@H]3CN1)[C@H]2CCc1ccccc1` [IF-789] the IC50 was 10 to 30 µM.
`O=C(NCc1cccc2ccccc12)[C@@]12C[C@@H]3CN(Cc4ccccc4)[C@@H]([C@@H]3CN1)[C@H]2Cc1ccccc1` [IF-805] gave an IC50 of 10 to 30 µM.
Molecule `CC(C)C[C@@H]1[C@@H]2[C@@H]3CN[C@@]1(C(=O)NCc1ccc(F)cc1)C[C@@H]3CN2Cc1ccccc1` [IF-807] has an IC50 of under 5 µM.
`CC(C)CN1C[C@H]2C[C@]3(C(=O)NCc4ccc(F)cc4)NC[C@H]2[C@H]1[C@H]3Cc1ccccc1` [IF-815] was tested, and the IC50 was under 5 µM.
Work on `CC(C)CCN1C[C@H]2C[C@]3(C(=O)NCCC(=O)O)NC[C@H]2[C@H]1[C@H]3CCc1ccccc1` [IF-830] yielded an IC50 of 10 to 30 µM.
For `CC(C)C[C@@H]1[C@@H]2[C@@H]3CN[C@@]1(C(=O)NCc1cccc4ccccc14)C[C@@H]3CN2Cc1ccccc1` [IF-837], the IC50 was 5 to 10 µM.
For `CC(C)C[C@@H]1[C@@H]2[C@@H]3CN[C@@]1(C(=O)NCc1ccc(C(F)(F)F)cc1)C[C@@H]3CN2Cc1ccccc1` [IF-838], the IC50 was 10 to 30 µM.
`CC(C)C[C@@H]1[C@@H]2[C@@H]3CN[C@@]1(C(=O)NCc1ccccc1)C[C@@H]3CN2Cc1ccc(Cl)cc1` [IF-839] showed an IC50 of 5 to 10 µM.
`CC(C)C[C@@H]1[C@@H]2[C@@H]3CN[C@@]1(C(=O)NCc1ccccc1)C[C@@H]3CN2Cc1cccc(Cl)c1` [IF-840] was tested, and the IC50 was 5 to 10 µM.
For `COc1ccc(CN2C[C@H]3C[C@]4(C(=O)NCc5ccccc5)NC[C@H]3[C@H]2[C@H]4CC(C)C)cc1` [IF-841], the IC50 was 5 to 10 µM.
Molecule `Cc1ccc(CN2C[C@H]3C[C@]4(C(=O)NCc5ccccc5)NC[C@H]3[C@H]2[C@H]4CC(C)C)cc1` [IF-842] has an IC50 of under 5 µM.
In the case of `CC(C)CCNC(=O)[C@@]12C[C@@H]3CN(CC(C)C)[C@@H]([C@@H]3CN1)[C@H]2Cc1ccccc1` [IF-845], the IC50 is reported as 10 to 30 µM.
`CC(C)C[C@@H]1[C@@H]2[C@@H]3CN[C@@]1(C(=O)NCc1ccc(Cl)cc1)C[C@@H]3CN2CC(C)C` [IF-846] gave an IC50 of 10 to 30 µM.
